Usually EC50 stands for the concentration at which the effect is half-maximal. The term AUC(0-t) denotes exposure summed from dosing to a finite time, without extrapolation to infinity. What is called clearance is the rate of elimination divided by the concentration. For orientation: half-life means the time in which the quantity being followed falls by half. A higher half-life goes with slow loss. As usually defined, the Cmax is the peak of the concentration-time curve.

Series [1] in a line: Protein binding assay (HT dialysis), rat plasma. Format: in vitro ADME. The settings on record: pH 7.4, Mean ± SEM, n = 3, read-out: Fu Plasma. On the procedure:
(§1) Unbound fractions of test compounds in plasma, brain homogenate and liver microsomes were determined using high-throughput dialysis (HT dialysis). Briefly, dialysis membranes were soaked in deionized water for 20 minutes and then in deionized water with 30% ethanol for 15 minutes and finally in phosphate buffer until use. Membranes were rinsed in phosphate buffer before assembling. The membranes were layered between teflon bars of dialysis assembly. Stock solutions of test compound/comparative compound were prepared at 10 mM in DMSO, diluted to 1 mM in acetonitrile and further diluted to 100 μM in mixture of water and acetonitrile (1:1 v/v). Human plasma (pool of 3) was prepared from human blood (3 donors) by centrifuging at 4000 rpm for 10 min at 4° C. Rat and dog blood were obtained on the day of the study and centrifuged to obtain plasma. Rat brains were isolated, cleaned and homogenized with 2 volumes of buffer (3 fold dilution). Liver microsomes were prepared at 0.5 mg/mL in phosphate buffer (100 mM, pH 7.4). The dialysate chambers were loaded with 150 μL of 100 mM phosphate buffer (pH 7.4) in triplicates. The matrix chambers were loaded with 150 μL of the plasma or brain homogenate or microsomal suspension spiked with test compound/comparative compound at a final concentration of 1 μM. 50 μL of the sample was removed from both the chambers at 0 h. The plate was sealed and incubated at 37° C. for 6 h at 100 rpm. After 6 h, 50 μL of the sample was removed from both the chambers. Equal volumes of buffer or human plasma/microsomal suspension were added to the plasma/microsomal and buffer samples respectively to create identical sample matrices for analysis. The samples were precipitated with 150 μL of acetonitrile containing fluoxetine as an internal standard. All the samples were centrifuged at 10000 rpm for 10 minutes at 4° C.

Series [2] in a line: Protein binding assay (HT dialysis), dog plasma. Format: in vitro ADME. The settings on record: pH 7.4, Mean ± SEM, n = 3, read-out: Fu Plasma (converted). On the procedure: as §1
The nature of series [3]: Protein binding assay (HT dialysis), human plasma. The format is in vitro ADME. The settings on record: pH 7.4, Mean ± SEM, n = 3, read-out: Fu Plasma (converted). On the procedure: as §1
A short description of series [4]: Protein binding assay (HT dialysis), rat brain homogenate. The format is in vitro ADME. The settings on record: pH 7.4, Mean ± SEM, n = 3, read-out: Fu Brain. On the procedure: as §1
Series [5] can be described thus: Protein binding assay (HT dialysis), rat liver microsomes. Format: in vitro ADME. The settings on record: pH 7.4, Rat liver microsomes 0.5 mg/mL, Mean ± SEM, n = 3, read-out: Fu Microsomes. On the procedure:
as §1
On the technique in general: Liver microsomes are a subcellular fraction often used to study metabolism.

Series [6] is described as follows: Protein binding assay (HT dialysis), dog liver microsomes. Format: in vitro ADME. The settings on record: pH 7.4, Dog liver microsomes 0.5 mg/mL, Mean ± SEM, n = 3, read-out: Fu Microsomes (converted). The protocol: as §1
Series [7] in a line: Protein binding assay (HT dialysis), human liver microsomes. Format: in vitro ADME. The settings on record: pH 7.4, Human liver microsomes 0.5 mg/mL, Mean ± SEM, n = 3, read-out: Fu Microsomes (converted). On the procedure:
as §1

For series [8], the target named is T1, human Muscarinic M1 receptor (Homo sapiens, UniProt P11229).
T1 sequence (P11229 1-460): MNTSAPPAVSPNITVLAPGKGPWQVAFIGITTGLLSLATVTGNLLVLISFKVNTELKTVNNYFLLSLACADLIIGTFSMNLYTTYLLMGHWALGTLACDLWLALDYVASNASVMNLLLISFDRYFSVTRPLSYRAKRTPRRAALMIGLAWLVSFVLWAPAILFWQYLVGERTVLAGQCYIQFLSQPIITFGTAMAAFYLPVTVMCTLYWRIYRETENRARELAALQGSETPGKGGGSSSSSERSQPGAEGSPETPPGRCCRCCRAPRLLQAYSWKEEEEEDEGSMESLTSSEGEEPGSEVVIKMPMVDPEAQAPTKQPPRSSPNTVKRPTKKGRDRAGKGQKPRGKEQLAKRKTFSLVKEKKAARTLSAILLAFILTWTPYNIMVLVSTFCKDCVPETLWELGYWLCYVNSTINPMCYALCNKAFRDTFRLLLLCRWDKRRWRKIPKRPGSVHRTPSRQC
As to the kind of experiment: Allosteric potency EC50 for muscarinic M1 receptor, CHO pCRE-Luc reporter cell assay. Format: cell-based. The settings on record: in presence of EC20 of acetylcholine; CHO cells, luciferase reporter, 4 h. On the procedure: A stable CHO cell line expressing recombinant human Muscarinic M1 receptor and pCRE-Luc reporter system was used for cell-based assay. The assay offers a non-radioactive based approach to determine binding of a compound to GPCRs. In this specific assay, the level of intracellular cyclic AMP which is modulated by activation or inhibition of the receptor is measured. The recombinant cells harbor luciferase reporter gene under the control of cAMP response element.
The above cells were grown in 96 well clear bottom white plates in Hams F12 medium containing 10% fetal bovine serum (FBS). Prior to the addition of compounds or standard agonist, cells were serum starved overnight. Increasing concentrations of test compounds were added along with EC20 of acetylcholine in OptiMEM medium to the cells. The incubation was continued at 37° C. in CO2 incubator for 4 h. Medium was removed and cells were washed with phosphate buffered saline. The cells were lysed and luciferase activity was measured in a Luminometer. Luminescence units were plotted against the compound concentrations using Graphpad software. EC50 values of the compounds were defined as the concentration required in stimulating the luciferase activity by 50% in presence of EC20 of acetylcholine.
(In a reporter assay the amount or activity of a reporter protein is the signal.)

Series [9] can be described thus: Rodent pharmacokinetic study. The settings on record: rat. Format: in vivo, Male Wistar rats. On the procedure: Male Wistar rats (260±50 grams) were used as experimental animals. Animals were housed individually in polypropylene cage. Two days prior to study, male Wistar rats were anesthetized with isoflurane for surgical placement of jugular vein catheter. Rats were randomly divided for oral (3 mg/kg) and intravenous (i.v) (1 mg/kg) dosing (n=3/group) and fasted overnight before oral dosing (p.o.). However, rats allocated to intravenous (i.v.) dosing food and water was provided ad libitum.
At pre-determined point, blood was collected through jugular vein and replenished with an equivalent volume of normal saline. Collected blood was transferred into a labeled eppendorf tube containing 10 μL of heparin as an anticoagulant. Typically blood samples were collected at following time points: 0.08, 0.25, 0.5, 1, 2, 4, 6, 8, and 24 h post dose. Blood was centrifuged at 4000 rpm for 10 minutes. Plasma was separated and stored frozen at −80° C. until analysis. The concentrations of the test compounds were quantified in plasma by qualified LC-MS/MS method using suitable extraction technique. The test compounds were quantified in the calibration range around 1-1000 ng/mL in plasma. Study samples were analyzed using calibration samples in the batch and quality control samples spread across the batch.
Pharmacokinetic parameters Cmax, AUCt, T1/2, clearance and bioavailability (F) were calculated by non-compartmental model using standard non-compartmental model by using Phoenix WinNonlin 6.0.2 or 6.0.3 version Software package and the results are tabulated below.

Series [10] can be described thus: Rodent brain penetration study. The format is in vivo, Male Wistar rats. The settings on record: male, Wistar, brain/plasma, po; rat, 3 mg/kg, p.o. @ 1.0 hr; read-out: Single dose Rat Brain Penetration (Cb/Cp). The protocol:
Male Wistar rats (260±40 grams) were used as experimental animals. Three animals were housed in each cage. Animals were given water and food ad libitum throughout the experiment and maintained on a 12 h light/dark cycle.
Brain penetration was determined in discrete manner in rats. One day prior to dosing day, male Wistar rats were acclimatized and randomly grouped according to their weight. At each time point (0.5, 1 and 2 h) n=3 animals were used.
The test compounds were suitably preformulated and administered orally at (free base equivalent) 3 mg/kg. Blood samples were removed via cardiac puncture by using isoflurane anesthesia. The animals were sacrificed to collect brain tissue. Plasma was separated and brain samples were homogenized and stored frozen at −20° C. until analysis. The concentrations of the test compounds in plasma and brain were determined using LC-MS/MS method.
The test compounds were quantified in plasma and brain homogenate by qualified LC-MS/MS method using suitable extraction technique. The test compounds were quantified in the calibration range of 1-500 ng/mL in plasma and brain homogenate. Study samples were analyzed using calibration samples in the batch and quality control samples spread across the batch.

Setting [11] is: male, Wistar, plasma, iv, i.v. 1 mg/kg.
[12] abbreviates: male, Wistar, plasma, oral 3 mg/kg.

Regarding `COc1ccc(Cc2cc3c(cc2C)CN([C@H]2CCCC[C@@H]2O)C3=O)cc1` [Comparative compound, reference compound], the fraction unbound at 6 h, 1 μM in series [1] is 0.0141 ± 0.003; in series [2] it was 0.0069; in [3], 0.0063; in series [4], 0.0022 ± 0.001; in [5] it was 0.551 ± 0.013; in series [6], 0.709. In addition, in [7], the fraction unbound at 6 h, 1 μM is 0.48.

For `Cc1nc2c(cc1Cc1ccc(F)c(F)c1)C(=O)N([C@H]1CCCC[C@@H]1O)CC2` [Example 19, 6-(1S,2S-2-Hydroxycyclohexyl)-2-methyl-3-(3,4-difluorobenzyl)-7,8-dihydro-6H-[1,6]naphthyridin-5-one], the EC50 in series [8] was determined as 972 nM.

For the molecule `COc1cccc(Cc2cc3c(nc2C)CCN([C@H]2CCCC[C@@H]2O)C3=O)c1` [Example 24, 6-(1S,2S-2-Hydroxycyclohexyl)-2-methyl-3-(3-methoxybenzyl)-7,8-dihydro-6H-[1,6]naphthyridin-5-one], in [8], the concentration for a half-maximal effect (EC50) stood at 1210 nM.

As for `Cc1nc2c(cc1Cc1cccc(Cl)c1)C(=O)N([C@H]1CCCC[C@@H]1O)CC2` [Example 18, 6-(1S,2S-2-Hydroxycyclohexyl)-2-methyl-3-(3-chlorobenzyl)-7,8-dihydro-6H-[1,6]naphthyridin-5-one], the EC50 in series [8] was 774 nM.

In the case of `Cc1nc(-c2ccc(Cc3cc4c(nc3C)CN(C3CCOCC3)C4=O)cc2)co1` [Example 16, 6-(Tetrahydropyran-4-yl)-2-methyl-3-[4-(2-methyl-oxazol-4-yl)-benzyl]-6,7-dihydropyrrolo[3,4-b]pyridin-5-one], the EC50 in [8] was 1320 nM.

As for `Cc1nc2c(cc1Cc1ccc(-c3cscn3)cc1)C(=O)N([C@H]1CCCC[C@@H]1O)C2` [Example 4, 6-(1S,2S-2-Hydroxycyclohexyl)-2-methyl-3-(4-thiazol-4-ylbenzyl)-6,7-dihydropyrrolo[3,4-b]pyridin-5-one], the 50% effective concentration (EC50) in [8] turned out to be 107 nM.

On to `Cc1nc2c(cc1Cc1ccc(F)cc1)C(=O)N([C@H]1CCCC[C@@H]1O)C2` [Example 9, 6-(1S,2S-2-Hydroxycyclohexyl)-2-methyl-3-(4-fluorobenzyl)-6,7-dihydropyrrolo[3,4-b]pyridin-5-one], for which the EC50 in series [8] was 1500 nM. In [9] (setting [11]), this molecule showed an AUC(0-t) of 1220 ± 25 ng·h/mL, a clearance of 13.5 ± 0.3 mL/min/kg and a half-life of 1.3 ± 0.3 h. Further, in series [9] (setting [12]), the exposure AUC(0-t) was determined as 1290 ± 387 ng·h/mL, the peak concentration (Cmax) was 592 ± 142 ng/mL and the half-life is 1.1 ± 0.4 h. This molecule also registered a F in series [9] (oral 3 mg/kg vs i.v. 1 mg/kg) of 35 ± 11%. In addition, the Kp at 1 h in series [10] was found to be 0.25 ± 0.04.

Consider `Cc1nc2c(cc1Cc1cccc(F)c1)C(=O)N([C@H]1CCCC[C@@H]1O)C2` [Example 10, 6-(1S,2S-2-Hydroxycyclohexyl)-2-methyl-3-(3-fluorobenzyl)-6,7-dihydropyrrolo[3,4-b]pyridin-5-one], for which the EC50 in series [8] was found to be 2780 nM.

As to `COc1ccc(Cc2cc3c(nc2C)CCN([C@H]2CCCC[C@@H]2O)C3=O)cc1` [Example 14, 6-(1S,2S-2-Hydroxycyclohexyl)-2-methyl-3-(4-methoxybenzyl)-7,8-dihydro-6H-[1,6]naphthyridin-5-one], in series [8], the EC50 is 643 nM.

With `Cc1nc2c(cc1Cc1ccnc(F)c1)C(=O)N([C@H]1CCCC[C@@H]1O)C2` [Example 28, 6-(1S,2S-2-Hydroxycyclohexyl)-2-methyl-3-(2-fluoropyridin-4-ylmethyl)-6,7-dihydropyrrolo[3,4-b]pyridin-5-one], the EC50 in series [8] was 929 nM.

Consider `Cc1nc2c(cc1Cc1ccc(-c3cnn(C)c3)nc1)C(=O)N([C@H]1CCCC[C@@H]1O)C2` [Example 2, 6-(1S,2S-2-Hydroxycyclohexyl)-2-methyl-3-[2-(1-methyl-1H-pyrazol-4-yl)pyridin-5-ylmethyl]-6,7-dihydropyrrolo[3,4-b]pyridin-5-one], for which the 50% effective concentration (EC50) in series [8] was found to be 288 nM.

For `COc1ccc(Cc2cc3c(nc2C)CN(C2COCCC2O)C3=O)cc1` (centres unmarked) [Example 13, 6-(4-Hydroxytetrahydropyran-3-yl)-3-(4-methoxybenzyl)-2-methyl-6,7-dihydropyrrolo[3,4-b]pyridin-5-one], the EC50 in series [8] came out at 669 nM.
